Source: patent US20110065715A1, “Nogo Receptor Binding Small Molecules to Promote Axonal Growth” (Yale University, priority 2007, published 2011)
Entries after “also recorded” stand apart in the source; their conditions may differ. Read-outs that look alike come from different tables or passages of the source.

Assays:
[1] = system: postnatal day 15 (P15) NgR1 knockout mouse DRG neurons; experiment: Neurite outgrowth, P15 NgR1 knockout mouse DRG neurons; assay type: cell-based; conditions: 24 hours
Description: (§1) However, the inhibition of neurite outgrowth by the compound S is believed to be independent of its interaction with the Nogo receptor-Nogo ligand complex. Dorsal root ganglia (DRG) were removed from wild type or NgR1 knockout mouse pups at postnatal day 15, dissociated by trituration after 30 min incubation in 0.5% collagenase, plated on laminin-coated 96-well tissue culture plates in DMEM with 10% fetal bovine serum and B27. After 24 hours, cells were fixed in 4% formaldehyde in phosphate buffered saline (PBS), washed in PBS, and blocked for 1 hour in PBS with 0.1% triton X-100 and 10% goat serum. The cells were then incubated in rabbit anti-beta-3-tubulin (1:500) in PBS overnight. After washing 3 times, the cells were incubated in Alexa-fluor 488 goat anti-rabbit IgG (1:500) for 6 hrs, washed with PBS, and imaged at 10× with an ImagExpress automated microscope (Molecular Devices, Inc.). Neurite outgrowth was measured with AcuityExpress software (Molecular Devices, Inc.).

[2] = system: embryonic day 13 or 14 chick DRG neurons; experiment: Neurite outgrowth assay, E13/E14 chick DRG neurons; assay type: cell-based, chicken; conditions: 20 μM
Description: To test the ability of the “hit” compounds to promote neurite outgrowth, a neurite outgrowth assay was performed using each of these compounds. Dorsal root ganglia (DRG) were removed from chicken embryos at embryonic day 13 or 14, dissociated by trituration after 30 min incubation in 0.5% collagenase, and plated on laminin-coated 96-well tissue culture plates in DMEM with 10% fetal bovine serum containing 20 μM of the test compound. After two to four hours of incubation, the cells were fixed in 4% formaldehyde in phosphate buffered saline (PBS), washed in PBS, and blocked for 1 hour in PBS with 0.1% triton X-100 and 10% goat serum. The cells were incubated in rabbit anti-beta-3-tubulin (1:500) in PBS overnight and then washed 3 times with PBS. The cells were then incubated in Alexa-fluor 488 goat anti-rabbit IgG (1:500) for 6 hrs, washed with PBS, and imaged at 10× with an ImagExpress automated microscope (Molecular Devices, Inc.). Neurite outgrowth was measured with AcuityExpress software (Molecular Devices, Inc.).

[3] = system: Nogo receptor:Nogo ligand (Nogo 66) interaction; experiment: DELFIA assay of Fc-NgR:Ng66 interaction; assay type: binding
Description: ELISA and DELFIA assays were then performed to evaluate the ability of the small molecules that were identified as “hits” in the AlphaScreens to inhibit the interaction of NgR and Nogo ligand. In the DELFIA Assay, 96 well streptavidin coated plates were blocked overnight with PBS and 10 mg/ml bovine serum albumin (BSA) (200 μl). The wells were then coated for 1.5 hours with sonicated HBH (Hanks Balanced Salt Solution/0.1 M HEPES/1 mg/ml BSA) containing Nogo 66 (B66) (0.5 μl of 10 mM/10 ml HBH) (50 μl) and then washed 4 times with 200 μl of HBH. The solution containing the inhibitor compound (50 μl in HBH) was added along with 1% FcNgR solution in HBH (50 μl), and the solution was incubated for 2 hours. The wells were washed 5 times with HBH. Alkaline phosphatase (AP) conjugated mouse anti-rat antibody (1:2500) was added and the wells were then washed 5 times with DELFIA wash buffer. The Europium (Eu) anti-mouse antibody was then added in Perlin Elmer Assay, buffer (100 μg/ml) (150 μl) and the wells were again washed 5 times with DELFIA wash buffer. The enhancer solution was added (100 μl) and the plate was read with the Perkin Elmer Victor 5 instrument 15 minutes later. (FIG. 10B) The results from the DELFIA assay indicate that compounds HTS08871, KM08071, and 503749, as well as the positive control, NEP33, inhibit the Nogo receptor:Nogo ligand (Nogo 66) interaction. (FIGS. 10D and 11A-C).

[4] = system: postnatal day 15 (P15) wild type mouse DRG neurons; experiment: Neurite outgrowth, P15 wild type mouse DRG neurons; assay type: cell-based; conditions: 24 hours
Description: as §1

N#Cc1ccc(CN2C(=O)CSC2=S)cc1 [S, 4-[(4-oxo-2-thioxo-1,3-thiazolan-3-yl)methyl]benzonitrile]
neurite outgrowth, NgR1 knockout mice [1]: inhibits neurite outgrowth; also recorded: inhibitory effect
neurite outgrowth compared to the DMSO control ([2]; E13 or E14 chick DRG, two to four hours): inhibited neurite outgrowth
basal neurite outgrowth, E14 chick DRG neurons ([2]; E14): no basal neurite outgrowth
inhibition of Nogo receptor:Nogo 66 interaction signal, DELFIA [3]: dose dependent signal inhibition
inhibition of Nogo receptor:Nogo 66 interaction signal, DELFIA ([3]; listed as 503749): inhibit
neurite outgrowth, wild type mice [4]: inhibits neurite outgrowth; also recorded: inhibitory effect
